System: urinary bladder cancer cell line RT‐4
Assay: Cell-based activity assay (western blot of acetylation levels)
Design: species or system human
Settings: RT-4 cells, 50 μM, 24 h, compounds irradiated (365 nm) prior to incubation
Procedure: Reductive stability of 15 c, 15 f and 20 a in the presence of the cellular reductant glutathione (5 mM) was confirmed by HPLC analysis (Figure S5, Table S2). For the cell‐based activity assay, we illuminated the compounds solved in DMSO with UV light (365 nm) prior to incubation with the cells. […] As expected, 15 c and 15 f increased the levels of acetylated lysines H3K18 and H3K56, which are both affirmed substrates of Sirt2. In addition, we found H4K8 hyperacetylation even though this site is usually not affected by sirtuin catalysed deacetylation, indicating a further mode of action. […] In Figure 6, we show the relative results, whereby the acetylation product was related to total target protein and to the vehicle control. Again, we found an increase in acetylated histones induced by 15 c and 15 f which proves activity of these two compounds in living cells.
Figure 6 Relative acetylation levels of protein targets after incubation with compounds at 50 μM for 24 h in urinary bladder cancer cell line RT‐4 (mean of n=2). […]
Cell-Based Activity Assay
To qualify inhibitory activity of compounds on sirtuins we used the western blot technique.
Therefore, we used precast “Mini-Protean TGX Stain-Free Gels” and corresponding “Trans-Blot Turbo Transfer Pack Mini” PVDF membranes (Biorad, Germany). For sample preparation, […]
Sirt2 in our cell line stock (Data not shown), obtained from “Deutsche Sammlung von Mikroorganismen und Zellkulturen” (DSMZ), Germany. Cells were grown in RPMI 1640 cell medium supplemented with 10% fetal bovine serum and 1% penicillin/streptomycin purchased from PAN Biotec, Germany and stored in a humidified incubator at 37 °C with 5% CO2 atmosphere. For sample preparation, cells were harvested with Trypsin/EDTA and counted in a Beckman’s Coulter Counter. In six well plates, […] were seeded out in 3 mL medium and let allow to attach for 24 h. Stock solutions of compounds (1000-fold) were prepared with DMSO and illuminated with UV light (365 nm) for 5 min. Then, cells were exposed to compounds at a final concentration of 50 µM and incubated for 24 h. Cells were detached with Trypsin/EDTA and washed with phosphate buffered saline (PBS) by centrifugation at 500 g for 5 min and resuspended in PBS. Cell pellets were lysed with a lysis buffer containing Tris […]
and freshly added 1% protease inhibitor cocktail (Sigma Aldrich, Germany) on ice, followed by sonification for 30 minutes. The protein concentration was determined by the Bradford method against bovine serum albumin (BSA) as standard. Each slot of the precast gel was loaded with 30 µg protein followed by an electrophoretic separation and a transfer onto PVDF membranes.
Blots were blocked with 10% non-fat milk powder in Tris-buffered saline containing 20 mM Tris, 145 mM NaCl and Tween 0.5% (TBST) for 2 h and incubated with primary antibody in 1:1000 dilutions (in TBST and 1% BSA) over night at 4 °C. After washing procedure, blots were incubated with secondary antibody conjugated with horse radish peroxidase (1:5000 in TBST and 1% BSA) for 2 h. All used antibodies were obtained from cell signalling (UK): anti ac.H3K9 […]
anti ac.α-tubulin (#5335), anti α-tubulin (#2125) and anti rabbit-HRP (#7074). Target protein bands were detected with Clarity Western ECL Substrate (Biorad, Germany) and recorded at an Advanced Fluorescence Imager (INTAS, Germany). Band intensity was related to internal standard of the TGX Stain-Free gels as loading control.
In order to verify the conformations of Z-15c and Z-15f obtained from our molecular docking experiments, a two-dimensional dihedral analysis was performed using MOE with 3-(2-phenyldiazenyl)-pyridine as reference compound. Both dihedrals were rotated by 360° in 5° steps. At each step, the potential energy was calculated with AMBER force field parameters and AM1-BCC partial charges applied. The diazenyl double bond of both compounds is nearly […]

## CC(C)(C)OC(=O)NCc1ccc(/N=N/c2cncc(C(N)=O)c2)cc1 [15 c]
  H4K8 acetylation: hyperacetylation
  acetylation level of α-tubulin: none of the compounds influenced
  expression of total histone H3: no effect
  expression of total α-tubulin protein: no effect
  level of acetylated lysine H3K18: increased
  level of acetylated lysine H3K56: increased
  total H4: slight increase

## CCCCCCCCCC(=O)NCc1ccc(/N=N/c2cncc(C(N)=O)c2)cc1 [15 f]
  H4K8 acetylation: hyperacetylation
  acetylation level of α-tubulin: none of the compounds influenced
  expression of total histone H3: no effect
  expression of total α-tubulin protein: no effect
  level of acetylated lysine H3K18: increased
  level of acetylated lysine H3K56: increased
  total H4: slight increase

## NC(=O)c1cncc(OCc2cccc(/N=N/c3ccc(OCc4ccccc4)cc3)c2)c1 [20 a]
  acetylation level of α-tubulin: none of the compounds influenced
  activity regarding the examined substrates (acetylation): did not exert any activity
  expression of total histone H3: no effect
  expression of total α-tubulin protein: no effect
  total H4: slight increase

From paper PMC7496931, “Activation of Sirtuin 2 Inhibitors Employing Photoswitchable Geometry and Aqueous Solubility” (Chemmedchem, 2020)
